Laboratory results from PubChem BioAssay (NCI).
Values joined by “and” are separate entries in the source; they are usually repeats but may differ in a detail not shown here. Identical values can stand only once.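 Five concentrations, 48 hours, 96-well plates. GI50 = concentration required for 50% inhibition of growth. TGI: concentration producing complete growth inhibition.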

Legend:
Assay in all cases: NCI-60 cell line screen, 48 h
786-0 renal = tested on: 786-0 renal
A498 renal = tested on: A498 renal
ACHN renal = tested on: ACHN renal
CAKI-1 renal = tested on: CAKI-1 renal
EKVX NSCLC = tested on: EKVX NSCLC
IGROV1 ovarian = tested on: IGROV1 ovarian
KM12 colon = tested on: KM12 colon
M14 melanoma = tested on: M14 melanoma
NCI-H226 lung = tested on: NCI-H226 lung
DU-145 prostate = tested on: DU-145 prostate

| SMILES | GI50 (786-0 renal) | TGI (786-0 renal) | GI50 (A498 renal) [µM] | TGI (A498 renal) [µM] | GI50 (ACHN renal) [µM] | TGI (ACHN renal) [µM] | GI50 (CAKI-1 renal) [µM] | TGI (CAKI-1 renal) [µM] | GI50 (EKVX NSCLC) [µM] | TGI (EKVX NSCLC) [µM] | GI50 (IGROV1 ovarian) [µM] | TGI (IGROV1 ovarian) [µM] | GI50 (KM12 colon) [µM] | TGI (KM12 colon) [µM] | GI50 (M14 melanoma) | TGI (M14 melanoma) [µM] | GI50 (NCI-H226 lung) [µM] | TGI (NCI-H226 lung) [µM] | GI50 (DU-145 prostate) [µM] | TGI (DU-145 prostate) [µM] |
| --- | --- | --- | --- | --- | --- | --- | --- | --- | --- | --- | --- | --- | --- | --- | --- | --- | --- | --- | --- | --- |
| [O-][Cl+3]([O-])([O-])[O-].[O]=[Ru]=[O].c1ccc(-c2ccccn2)nc1.c1ccc(-c2ccccn2)nc1 | > 100 µM | > 100 µM | > 100 | > 100 | > 100 | > 100 | > 100 | > 100 | > 100 | > 100 | 58.8 | > 100 | > 100 | > 100 | > 100 µM | > 100 | 56.7 | > 100 | – | – |
| CCCCCCCCCCCCNC(=S)OC | – | 29.3 µM | – | 31.6 | – | 33 | – | 28.3 | – | 36.6 | – | 24.3 | – | 29.6 | – | 32.1 | – | – | – | – |
| O=c1[nH]c(-c2ccccc2)nc2cc(Cl)ccc12 | – | > 100 µM | – | > 100 | – | > 100 | – | > 100 | – | > 100 | – | > 100 | – | > 100 | – | > 100 | – | > 100 | – | – |
| C=C1C[C@H](O)[C@H](Br)C(C)(C)[C@@]12CCC(C)=C(Cl)C2 | 0.57 µM | 11.7 µM | 0.838 | 4.04 | 0.369 | 10.7 | 0.133 | 13.2 | 0.0371 | 1.37 | 0.25 | 11.7 | 0.311 | 2.11 | 0.314 µM | 1.66 | – | – | 0.276 | 3.25 |
| COc1cc2c(cc1OC)-c1cc(OC)c(OC)cc1C(CN(C)C)C2 (centres undefined) | > 10 µM | > 10 µM | > 10 | > 10 | > 10 | > 10 | > 10 | > 10 | – | – | > 10 | > 10 | > 10 | > 10 | > 10 µM | > 10 | > 10 | > 10 | > 10 | > 10 |
| NC(=S)N/N=C\c1nccc2c(C(F)(F)F)cccc12 | 0.3 µM | 0.957 µM | 0.433 | 10.6 | 0.226 | 5.58 | 0.312 | 8.73 | – | – | 0.365 | 14.8 | 0.356 | 16.9 | 0.224 µM | 0.706 | 0.259 | 2.39 | 0.292 | > 39.3 |
| Cc1[cH-]c(=O)n(-c2ccccc2)n1.[Au+].[Au].c1ccc([PH+](c2ccccc2)c2ccccc2)cc1.c1ccc([PH+](c2ccccc2)c2ccccc2)cc1 | 1.6 µM and 4.03 µM | 5.53 µM and 16.6 µM | 23.9 | 38.9 | 22.3 | 58.6 | – | – | 23 | 79.7 | 13.6 | 31.7 | 36.7 | > 100 | 9.12 µM and 9.46 µM | 41.5 | 26.7 | 77.8 | – | – |
| CCOC(=O)C1=C(C)N(NC(=O)Nc2ccccc2)C2(N)N(NC(=O)Nc3ccccc3)C(C)=C(C(=O)OCC)C12C(=O)OCC (centres undefined) | – | > 100 µM | – | > 100 | – | > 100 | – | – | – | > 100 | – | > 100 | – | > 100 | – | > 100 | – | – | – | – |
| O=C(Nc1nc(=S)[nH][nH]1)C(=O)C(C(=O)c1ccc2ccccc2c1)C1OC(=O)c2ccccc21 (centres undefined) | – | 49.5 µM | – | > 100 | – | > 100 | – | > 100 | – | > 100 | – | 53.7 | – | > 100 | – | 40.9 | – | 19.8 | – | – |
| CC1(C)CC(c2c[nH]c3ccccc23)=CC2=Nc3ccccc3C21O (centres undefined) | – | > 100 µM | – | > 100 | – | > 100 | – | > 100 | – | > 100 | – | > 100 | – | > 100 | – | > 100 | – | 57.7 | – | – |
| S=P1(Oc2ccccc2)NNP2(=NP(N3CC3)(N3CC3)=NP(N3CC3)(N3CC3)=N2)NN1 (centres undefined) | – | > 100 µM | – | > 100 | – | > 100 | – | > 100 | – | > 100 | – | > 100 | – | > 100 | – | – | – | > 100 | – | – |
| Cc1cc(Nc2ccc(C)c(Cl)c2)n2nc(C(F)(F)F)nc2n1 | 18.8 µM | 40 µM | 8.61 | 53.5 | 16.3 | 35.9 | 14.6 | 34.7 | – | – | 26.7 | > 100 | 27.2 | > 100 | 28.5 µM | 76.5 | 23.2 | > 100 | 17.6 | 38.9 |
| C#Cc1cccc(Nc2nc3cc([N+](=O)[O-])ccc3nc2Nc2ccc(O)cc2)c1 | 1.59 µM | 3.43 µM | 3.08 | 13.7 | 1.61 | 4.01 | 2.19 | 5.04 | 1.86 | 5.26 | 1.78 | 4.37 | 1.83 | 3.89 | 1.43 µM | 2.99 | – | – | 1.81 | 3.77 |
| O=C1C(C(Nc2ccccc2)c2ccccc2)=C([O-])c2ccccc21.O=C1C(C(Nc2ccccc2)c2ccccc2)=C([O-])c2ccccc21.[Cu+2] (centres undefined) | 48.3 µM | > 100 µM | 30.6 | > 100 | 86.2 | > 100 | > 100 | > 100 | – | – | 54.5 | > 100 | 32.2 | > 100 | 18.5 µM | > 100 | – | – | – | – |
| COc1c(CC(C)=O)ccc2c1C(=O)c1ccc(C=O)c(OC(C)=O)c1C2=O | – | 21.4 µM | – | 80.3 | – | 51.3 | – | 47 | – | 56.9 | – | 44.2 | – | 39.2 | – | 25.6 | – | 36.2 | – | – |
| Clc1ccc2cccc3c2c1C1OC3c2ccccc21 (centres undefined) | – | > 100 µM | – | > 100 | – | > 100 | – | – | – | > 100 | – | > 100 | – | > 100 | – | > 100 | – | > 100 | – | – |
| O=C(/C=C/c1c(O)ccc2ccccc12)c1ccc([N+](=O)[O-])cc1 | – | > 55.6 µM | – | > 100 | – | 54 | – | > 74 | – | > 100 | – | > 100 | – | > 100 | – | 41.6 | – | > 100 | – | – |
